Ten compounds from patent publication US10479795B2 (Incyte Corporation, priority 2016, dated 2019) can be followed below.

Counter-ions that a name gives are not always drawn. Like-named read-outs stand apart in the source and are kept apart here.

Test [1] deals with PI3Kγ (p110γ) Recombinant Human Protein (Homo sapiens (Human), UniProt P48736). Description: PI3K-γ Scintillation Proximity Assay. It counts as biochemical. The conditions noted are these: read-out: PI3Kγ IC50. Summed up: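 Recombinant human p110γ assayed at room temperature in 20 mM MOPS pH 6.7, 10 mM MgCl2, 5 mM DTT, 0.03% CHAPS, 2% DMSO, with 20 μM PIP2 and 2 μM ATP plus [γ-33P]ATP. Product captured on WGA SPA beads overnight and counted; IC50 fitted from % of solvent-control activity versus log inhibitor concentration.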
On the technique in general: In a scintillation proximity assay essentially only radioactivity close to the scintillant gives light.

The test system of test [2] is Phosphorylated Ribosomal Protein S6 (RPS6). In words: THP-1 RPS6 ELISA Assay. It counts as cell-based, Human. The conditions noted are these: THP-1 cells, read-out: PI3Kγ_THP1_RPS6_ELISA IC50. The procedure: To measure the Phosphorylated Ribosomal Protein S6 (RPS6) in cell lysates, THP-1 cells (Human Acute Monocytic Leukemia) are purchased from ATCC (Manassas, Va.) and maintained in RPMI with 10% FBS (Gibco/Life Technologies, Carlsbad, Calif.). For the assay, THP-1 cells are serum starved overnight in RPMI, then plated in RPMI (2×10^5 cells/well in 90 μL) into 96-well flat-bottom tissue culture treated plates (Corning, Corning, N.Y.), in the presence or absence of a concentration range of test compounds. Covered plates are incubated for 2 hours at 37° C., 5% CO2 then treated with or without 10 nM MCP-1 (MYBioSource, San Diego, Calif.) for 15 minutes at 37° C., 5% CO2. Plates are centrifuged at 1600 RPM and supernatants are removed. Cells are lysed in Lysis Buffer (Cell Signaling, Danvers, Mass.) with Protease Inhibitor (Calbiochem/EMD, Germany), PMSF (Sigma, St Louis Mo.), HALTS (Thermo Fisher, Rockford, Ill.) for 30 min on wet ice. Cell lysates are frozen at −80° C. before testing. The lysates are tested in the Human/Mouse/Rat Phospho-RPS6 ELISA (R&D Systems, Inc. Minn, Minn.). The plate is measured using a microplate reader (SpectraMax M5 —Molecular Devices, LLC Sunnyvale, Calif.) set to 450 nm with a wavelength correction of 540. IC50 determination is performed by fitting the curve of inhibitor percent inhibition versus the log of the inhibitor concentration using the GraphPad Prism 5.0 software.
(In general: ELISA stands for enzyme-linked immunosorbent assay.)

Test [3] deals with PI3Kδ (p110δ/p85α) Recombinant Human Protein (Homo sapiens (Human), UniProt O00329). Description: PI3Kδ Scintillation Proximity Assay. It counts as biochemical. Summed up: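 Recombinant human p110δ/p85α (3.4 nM) with 20 μM PIP2 and 2 μM ATP plus [γ-33P]ATP, in 20 mM MOPS pH 6.7, 10 mM MgCl2, 5 mM DTT, 0.03% CHAPS, 2% DMSO; 120 min at room temperature. Product captured on WGA SPA beads, scintillation counted; IC50 from percent-of-control curves.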
Sequence of PI3Kδ (p110δ/p85α) Recombinant Human Protein (O00329 whole entry): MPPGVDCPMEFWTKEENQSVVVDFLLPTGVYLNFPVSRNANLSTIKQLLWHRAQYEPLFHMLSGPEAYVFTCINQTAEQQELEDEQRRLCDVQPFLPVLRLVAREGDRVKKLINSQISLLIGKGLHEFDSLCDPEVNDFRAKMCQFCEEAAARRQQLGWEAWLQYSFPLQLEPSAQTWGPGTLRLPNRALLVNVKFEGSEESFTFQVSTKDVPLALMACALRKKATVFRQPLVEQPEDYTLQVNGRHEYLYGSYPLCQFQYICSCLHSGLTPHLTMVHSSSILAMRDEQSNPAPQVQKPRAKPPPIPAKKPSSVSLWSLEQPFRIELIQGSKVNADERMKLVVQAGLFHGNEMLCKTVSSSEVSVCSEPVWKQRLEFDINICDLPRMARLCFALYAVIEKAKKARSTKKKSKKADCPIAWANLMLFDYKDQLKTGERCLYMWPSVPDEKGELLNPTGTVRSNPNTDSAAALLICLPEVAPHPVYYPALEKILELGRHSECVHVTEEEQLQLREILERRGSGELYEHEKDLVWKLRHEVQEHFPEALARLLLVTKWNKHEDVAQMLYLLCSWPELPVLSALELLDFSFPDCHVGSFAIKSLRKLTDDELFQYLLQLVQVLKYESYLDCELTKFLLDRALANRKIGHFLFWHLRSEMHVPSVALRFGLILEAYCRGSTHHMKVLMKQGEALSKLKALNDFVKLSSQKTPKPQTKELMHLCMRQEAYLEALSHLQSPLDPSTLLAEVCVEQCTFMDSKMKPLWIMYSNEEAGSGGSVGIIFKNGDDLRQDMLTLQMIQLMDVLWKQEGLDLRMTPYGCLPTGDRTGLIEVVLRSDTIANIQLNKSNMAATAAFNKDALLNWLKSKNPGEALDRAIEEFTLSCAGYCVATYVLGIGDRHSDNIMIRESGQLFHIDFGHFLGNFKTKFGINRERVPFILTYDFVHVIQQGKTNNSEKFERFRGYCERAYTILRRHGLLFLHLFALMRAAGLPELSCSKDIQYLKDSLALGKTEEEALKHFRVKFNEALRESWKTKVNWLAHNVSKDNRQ
Sequence of PI3Kδ (p110δ/p85α) Recombinant Human Protein (P27986 whole entry partner): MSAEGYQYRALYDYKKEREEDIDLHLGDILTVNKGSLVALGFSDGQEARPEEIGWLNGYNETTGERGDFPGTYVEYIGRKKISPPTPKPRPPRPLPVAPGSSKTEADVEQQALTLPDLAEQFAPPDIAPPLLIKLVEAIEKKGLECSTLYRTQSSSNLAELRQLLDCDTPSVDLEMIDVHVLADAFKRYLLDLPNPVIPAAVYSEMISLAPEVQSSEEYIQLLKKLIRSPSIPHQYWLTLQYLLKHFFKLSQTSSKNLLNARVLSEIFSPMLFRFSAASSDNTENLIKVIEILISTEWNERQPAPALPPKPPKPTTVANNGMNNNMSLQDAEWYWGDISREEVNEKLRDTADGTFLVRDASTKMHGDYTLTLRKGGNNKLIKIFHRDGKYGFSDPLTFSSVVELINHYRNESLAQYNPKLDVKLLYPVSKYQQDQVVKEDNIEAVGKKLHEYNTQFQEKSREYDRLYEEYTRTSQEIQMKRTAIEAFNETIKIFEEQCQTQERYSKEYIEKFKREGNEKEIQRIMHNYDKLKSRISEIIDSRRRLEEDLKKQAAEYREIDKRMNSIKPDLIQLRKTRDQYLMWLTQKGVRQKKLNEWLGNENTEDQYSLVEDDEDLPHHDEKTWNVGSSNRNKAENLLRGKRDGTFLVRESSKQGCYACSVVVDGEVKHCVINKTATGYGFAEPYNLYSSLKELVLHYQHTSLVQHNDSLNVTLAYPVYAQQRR

Sequence of PI3Kγ (p110γ) Recombinant Human Protein (P48736 whole entry): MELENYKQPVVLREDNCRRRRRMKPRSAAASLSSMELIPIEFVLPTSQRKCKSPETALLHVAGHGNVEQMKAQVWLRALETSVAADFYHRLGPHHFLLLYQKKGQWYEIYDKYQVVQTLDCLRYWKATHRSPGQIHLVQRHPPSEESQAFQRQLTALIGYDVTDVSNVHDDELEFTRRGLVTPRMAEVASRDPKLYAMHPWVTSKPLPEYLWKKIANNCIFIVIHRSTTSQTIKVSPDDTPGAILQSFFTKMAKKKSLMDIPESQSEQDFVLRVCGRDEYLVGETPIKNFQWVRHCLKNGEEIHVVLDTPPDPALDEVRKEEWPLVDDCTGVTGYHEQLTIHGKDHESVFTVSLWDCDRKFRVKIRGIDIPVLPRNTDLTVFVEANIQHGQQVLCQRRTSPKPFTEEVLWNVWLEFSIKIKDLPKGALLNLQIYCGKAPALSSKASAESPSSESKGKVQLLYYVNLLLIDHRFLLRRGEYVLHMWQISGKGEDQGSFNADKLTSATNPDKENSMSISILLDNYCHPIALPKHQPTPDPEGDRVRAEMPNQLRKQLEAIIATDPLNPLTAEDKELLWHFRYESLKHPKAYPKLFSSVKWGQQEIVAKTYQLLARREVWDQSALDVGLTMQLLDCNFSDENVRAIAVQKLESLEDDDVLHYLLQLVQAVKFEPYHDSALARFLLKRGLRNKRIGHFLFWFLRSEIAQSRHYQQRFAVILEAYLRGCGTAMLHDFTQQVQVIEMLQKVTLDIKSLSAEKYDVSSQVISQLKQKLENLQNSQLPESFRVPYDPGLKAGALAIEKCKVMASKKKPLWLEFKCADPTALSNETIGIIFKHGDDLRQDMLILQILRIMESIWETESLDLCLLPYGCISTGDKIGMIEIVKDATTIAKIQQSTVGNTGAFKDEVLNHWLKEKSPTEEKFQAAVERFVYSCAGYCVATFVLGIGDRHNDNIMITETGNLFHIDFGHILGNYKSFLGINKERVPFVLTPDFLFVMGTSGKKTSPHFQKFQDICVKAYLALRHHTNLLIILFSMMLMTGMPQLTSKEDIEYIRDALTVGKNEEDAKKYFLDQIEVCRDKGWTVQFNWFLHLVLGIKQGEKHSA

In the case of `[2H]C([2H])([2H])c1ccc(S(=O)(=O)NC23CCC(O)(C2)C3)cc1-c1cnc2c(N)nc(C)cn12` [Example 384, 3-(8-Amino-6-methylimidazo[1,2-a]pyrazin-3-yl)-N-(4-hydroxybicyclo[2.1.1]hexan-1-yl)-4-(methyl-d3)benzenesulfonamide], the IC50 is below 100 nM in test [1], 500 to 1000 nM in test [2] (Homo sapiens) and below 100 nM in test [3].
For the compound `Cc1nc(N)c2ncc(-c3cc(S(=O)(=O)NCC(C)(C)O)ccc3C)n2n1` [Example 273, 3-(4-amino-2-methylimidazo[1,2-f][1,2,4]triazin-7-yl)-N-(2-hydroxy-2-methylpropyl)-4-methylbenzenesulfonamide trifluoroacetate salt], the figures for the IC50 in test [1], in test [2] and in test [3] were below 100 nM, 100 to 500 nM and 500 to 2000 nM, respectively.
Regarding `Cc1ccc(S(=O)(=O)NC23CC(Cn4cccn4)(C2)C3)cc1-c1cnc2c(N)ncnn12` [Example 92, N-(3-((1H-pyrazol-1-yl)methyl)bicyclo[1.1.1]pentan-1-yl)-3-(4-aminoimidazo[1,2-f][1,2,4]triazin-7-yl)-4-methylbenzenesulfonamide trifluoroacetate salt], the IC50 in test [1] was below 100 nM; in test [2], below 100 nM; in test [3] it was 100 to 500 nM.
Regarding `Cc1ccc(S(=O)(=O)N[C@H]2CC[C@H](NC(=O)OC(C)(C)C)CC2)cc1-c1cnc2c(N)ncnn12` [Example 72, tert-Butyl [trans-4-({[3-(4-aminoimidazo[2,1-f][1,2,4]triazin-7-yl)-4-methylphenyl]sulfonyl}amino)cyclohexyl]carbamate], the IC50 in test [1] is below 100 nM; in test [2] (Homo sapiens) it was above 1000 nM; in test [3], above 2000 nM.
Consider `CC(=O)N[C@H]1CC[C@H](NS(=O)(=O)c2ccc(C)c(-c3cnc4c(N)nccn34)c2)CC1` [Example 59, N-[trans-4-({[3-(8-Aminoimidazo[1,2-a]pyrazin-3-yl)-4-methylphenyl]sulfonyl}amino)cyclohexyl]acetamide], for which the values for the IC50 in test [1], in test [2] (Homo sapiens) and in test [3] were below 100 nM, above 1000 nM and 500 to 2000 nM, respectively.
`Cc1ccc(S(=O)(=O)NC23CC(N4CCOCC4)(C2)C3)cc1-c1cnc2c(N)nc(C(F)(F)F)nn12` [Example 340, 3-(4-Amino-2-(trifluoromethyl)imidazo[1,2-f][1,2,4]triazin-7-yl)-4-methyl-N-(3-morpholinobicyclo[1.1.1]pentan-1-yl)benzenesulfonamide trifluoroacetate salt]: the IC50 in test [1] is below 100 nM; in test [2], 100 to 500 nM; in test [3], 100 to 500 nM.
For `Cc1ncc(S(=O)(=O)NC23CCC(C#N)(C2)C3)cc1-c1cnc2c(N)ncnn12` [Example 256, 5-(4-Aminoimidazo[2,1-f][1,2,4]triazin-7-yl)-N-(4-cyanobicyclo[2.1.1]hexan-1-yl)-6-methylpyridine-3-sulfonamide trifluoroacetate salt], the IC50 in test [1] is below 100 nM; in test [2] (Homo sapiens), 100 to 500 nM; in test [3] it was 100 to 500 nM.
As for `Cc1ccc(S(=O)(=O)NC23CCC(CC2)C3)cc1-c1cnc2c(N)ncnn12` [Example 180, 3-(4-aminoimidazo[1,2-f][1,2,4]triazin-7-yl)-N-(bicyclo[2.2.1]heptan-1-yl)-4-methylbenzenesulfonamide trifluoroacetate salt], the IC50 was below 100 nM in test [1], 100 to 500 nM in test [2] and 100 to 500 nM in test [3].
With `Cc1ccc(S(=O)(=O)N2CC(F)C2)cc1-c1cnc2c(N)ncnn12` [Example 131, 7-(5-((3-fluoroazetidin-1-yl)sulfonyl)-2-methylphenyl)imidazo[2,1-f][1,2,4]triazin-4-amine], the figures for the IC50 in test [1], in test [2] (Homo sapiens) and in test [3] were 100 to 500 nM, above 1000 nM and 500 to 2000 nM, respectively.
The like results for `Cc1ccc(S(=O)(=O)N2C(C)CCCC2CO)cc1-c1cnc2c(N)ncnn12` (stereo not drawn) [Example 157, (1-((3-(4-aminoimidazo[2,1-f][1,2,4]triazin-7-yl)-4-methylphenyl)sulfonyl)-6-methylpiperidin-2-yl)methanol] were, in that order, below 100 nM, 500 to 1000 nM and 500 to 2000 nM.

What is called IC50 is the concentration at which inhibition is half-maximal.
